Laboratory results taken from ChEMBL document CHEMBL4400510, “Synthesis and antitubercular evaluation of reduced lipophilic imidazo[1,2-a]pyridine-3-carboxamide derivatives” (Eur J Med Chem, 2019).

Columns and labels:
[1] = test system: Mycobacterium tuberculosis; test: Antitubercular activity against multi drug resistant Mycobacterium tuberculosis 16995 after 7 days by MABA method; assay type: functional; conditions: Mycobacterium tuberculosis, 16995, 168 h
[2] = test system: Mycobacterium tuberculosis; test: Antitubercular activity against multi drug resistant Mycobacterium tuberculosis 16833 after 7 days by MABA method; assay type: functional; conditions: Mycobacterium tuberculosis, 16833, 168 h
[3] = Selectivity index, ratio of CC50 for African green monkey Vero cells to MIC>90 multi drug resistant Mycobacterium tuberculosis 16995; assay type: toxicity; conditions: read-out: Selectivity Index

SMILES | MIC90 [1] | MIC90 [2] | selectivity ratio [3]
CCc1nc2ccc(Cl)cn2c1C(=O)NCc1ccc(N2CCN(Cc3ccc(OC(F)(F)F)cc3)CC2)cc1 | < 0.035 µM | < 0.035 µM | –
CCc1nc2ccc(Cl)cn2c1C(=O)NCc1ccc(N2CC3CN(CC4CCCCC4)CC3C2)cc1 (configuration not stated) | < 0.035 µM | < 0.035 µM | > 1000
CCc1nc2ccc(Cl)cn2c1C(=O)NCc1ccc(N2CC3CN(c4ccc(OC(F)(F)F)cc4)CC3C2)cc1 (configuration not stated) | < 0.035 µM | < 0.035 µM | –
CCc1nc2ccc(Cl)cn2c1C(=O)NCc1ccc(N2CC3CN(Cc4ccc(OC(F)(F)F)cc4)CC3C2)cc1 (configuration not stated) | < 0.035 µM | < 0.035 µM | > 586
CCc1nc2ccc(Cl)cn2c1C(=O)NCc1ccc(N2CCC3(CC2)CCN(c2ccc(OC(F)(F)F)cc2)CC3)cc1 | < 0.035 µM | < 0.035 µM | > 1000
CCc1nc2ccc(Cl)cn2c1C(=O)NCc1ccc(N2CC3CCC2CN3CC2CCCCC2)cc1 (configuration not stated) | < 0.035 µM | < 0.035 µM | –
CCc1nc2ccc(Cl)cn2c1C(=O)NCc1ccc(N2CCN(CC3CCCCC3)CC2)cc1 | < 0.035 µM | < 0.035 µM | > 1000
NNC(=O)c1ccncc1 [ISONIAZID] | > 40 µM | > 40 µM | –
O=c1nc(N2CCN(CC3CCCCC3)CC2)sc2c([N+](=O)[O-])cc(C(F)(F)F)cc12 [MACOZINONE] | < 0.035 µM | < 0.035 µM | –
CO[C@H]1/C=C/O[C@@]2(C)Oc3c(C)c(O)c4c(O)c(c(/C=N/N5CCN(C)CC5)c(O)c4c3C2=O)NC(=O)/C(C)=C\C=C\[C@H](C)[C@H](O)[C@@H](C)[C@@H](O)[C@@H](C)[C@H](OC(C)=O)[C@@H]1C [RIFAMPIN] | > 40 µM | > 40 µM | –
CCc1nc2ccc(Cl)cn2c1C(=O)NCc1ccc(N2CCC(c3ccc(OC(F)(F)F)cc3)CC2)cc1 [TELACEBEC] | < 0.035 µM | < 0.035 µM | > 1000
